# According to patent publication US8008304B2, “Substituted propiolic acid amides and their use for producing drugs” (Grüenthal GmbH, priority 2005, dated 2011):
# Structures can show the parent of a compound that is named as a salt.
# Test system: not listed separately
# Assay: Formaline test in rats (phase 2, chronic pain component)
# Format: in vivo
# Settings: phase 2 (21 to 27 min after formaline injection)
# Experimental: III. Formaline Test in Rats: The formaline test (Dubuisson, D. and Dennis, S. G., 1977, Pain, 4, 161-174) represents a model for acute and chronic pain. A biphasic nociceptive reaction, which is recorded by observation of three clearly differentiable behavioural patterns, is induced by a single formaline injection into the dorsal side of a rear paw in freely mobile test animals. The reaction has two phases: Phase 1=Immediate reaction (duration up to 10 min; paw shaking, licking), Phase 2=Late reaction (after a rest phase; likewise, paw shaking, licking; duration up to 60 min). The 1st phase reflects a direct stimulation of the peripheral nocisensors with high spinal nociceptive input or glutamate release (acute pain phase); the 2nd phase reflects a spinal and peripheral hypersensitisation (chronic pain phase). In the investigations presented here, the chronic pain component (phase 2) was evaluated. Formaline with a volume of 50 μl and a concentration of 5% is administered subcutaneously into the dorsal side of the right rear paw of each animal. The substances to be tested are administered for 30 min before the formaline injection orally (p.o.), intravenously (i.v.) or intraperitoneally (i.p.). […]
row,Structure (SMILES),Formaline test (rat) i.v. Reduction in nociceptive behaviour over control at 10 mg/kg [%]
1,"C[C@@H]1CN(c2cscn2)CCN1C(=O)C#Cc1cccc(Cl)c1 [Example 4, (R)-2-methyl-1-(3-(3-chloro-phenyl)-propiolyl)-4-(thiazol-4-yl)-piperazine]",75

# Target: T1, mGluR5 receptor (Sus scrofa, UniProt I3LUI7)
# T1 construct: from tissue; host or cells: pig brain halves without medulla, cerebellum and pons
# Assay: Inhibition of [3H]-MPEP bond in the mGluR5 receptor bond assay (pig brain homogenate)
# Format: binding
# Settings: 450 μg protein from pig brain homogenate, 5 nM [3H]-MPEP, 60 min, room temperature
# Experimental: Substituted propiolic acid amides of the above-mentioned general formula I are likewise particularly preferred, which, after 60 minutes of incubation in 450 μg protein from pig brain homogenate at a temperature between 20° C. and 25° C. in a concentration of less than 2000 nM, preferably of less than 1000 nM, particularly preferably of less than 700 nM, very particularly preferably of less than 100 nM, even more preferably of less than 30 nM, bring about a 50-percent displacement of [^3H]-2-methyl-6-(3-methoxyphenyl)-ethynylpyridine which is present in a concentration of 5 nM.
# Thereby, the determination of the displacement of [^3H]-2-methyl-6-(3-methoxyphenyl)-ethynylpyridine is performed as described in the section Pharmacological Methods, I. Method for determining the inhibition of [^3H]-MPEP-bonding in the mGluR5 receptor bonding assay.
# I. Method for Determining the Inhibition of the [^3H]-MPEP Bond in the mGluR5 Receptor Bond Assay
# Pig brain homogenate is produced by homogenisation (Polytron PT 3000, Kinematica AG, 10,000 rpm for 90 seconds) of pig brain halves without medulla, cerebellum and pons in buffer pH 8.0 (30 mM Hepes, Sigma, order no. H3375+1 tablet complete to 100 ml, Roche Diagnostics, order no. 1836145) in ratio 1:20 (brain weight/volume) and differential centrifugation at 900×g and 40,000×g. In each case, 450 μg protein from brain homogenate is incubated with 5 nM ^3[H]-MPEP (Tocris, order no. R1212) (MPEP=2-methyl-6-(3-methoxyphenyl)-ethynylpyridine) in 250 μl incubation batches in 96 well microtitration plates and the compounds to be tested (10 μM in the test) in buffer (as above) at room temperature for 60 min.
# Thereafter, the batches are filtered with the help of a Brandel Cell Harvester (Brandel, TYP Robotic 9600) on unifilter plates with glass fibre filter mats (Perkin Elmer, order no. 6005177) and subsequently washed with buffer (as above) 3 times with in each case 250 μl per sample. The filter plates are subsequently dried for 60 min at 55° C. 30 μL Ultima Gold™ scintillator is subsequently added per well (Packard BioScience, order no. 6013159) and the samples are measured after 3 hours on the β-counter (Mikrobeta, Perkin Elmer). The unspecific bond is determined by addition of 10 μM MPEP (Tocris, order no. 1212).
# T1 sequence (I3LUI7 19-1212): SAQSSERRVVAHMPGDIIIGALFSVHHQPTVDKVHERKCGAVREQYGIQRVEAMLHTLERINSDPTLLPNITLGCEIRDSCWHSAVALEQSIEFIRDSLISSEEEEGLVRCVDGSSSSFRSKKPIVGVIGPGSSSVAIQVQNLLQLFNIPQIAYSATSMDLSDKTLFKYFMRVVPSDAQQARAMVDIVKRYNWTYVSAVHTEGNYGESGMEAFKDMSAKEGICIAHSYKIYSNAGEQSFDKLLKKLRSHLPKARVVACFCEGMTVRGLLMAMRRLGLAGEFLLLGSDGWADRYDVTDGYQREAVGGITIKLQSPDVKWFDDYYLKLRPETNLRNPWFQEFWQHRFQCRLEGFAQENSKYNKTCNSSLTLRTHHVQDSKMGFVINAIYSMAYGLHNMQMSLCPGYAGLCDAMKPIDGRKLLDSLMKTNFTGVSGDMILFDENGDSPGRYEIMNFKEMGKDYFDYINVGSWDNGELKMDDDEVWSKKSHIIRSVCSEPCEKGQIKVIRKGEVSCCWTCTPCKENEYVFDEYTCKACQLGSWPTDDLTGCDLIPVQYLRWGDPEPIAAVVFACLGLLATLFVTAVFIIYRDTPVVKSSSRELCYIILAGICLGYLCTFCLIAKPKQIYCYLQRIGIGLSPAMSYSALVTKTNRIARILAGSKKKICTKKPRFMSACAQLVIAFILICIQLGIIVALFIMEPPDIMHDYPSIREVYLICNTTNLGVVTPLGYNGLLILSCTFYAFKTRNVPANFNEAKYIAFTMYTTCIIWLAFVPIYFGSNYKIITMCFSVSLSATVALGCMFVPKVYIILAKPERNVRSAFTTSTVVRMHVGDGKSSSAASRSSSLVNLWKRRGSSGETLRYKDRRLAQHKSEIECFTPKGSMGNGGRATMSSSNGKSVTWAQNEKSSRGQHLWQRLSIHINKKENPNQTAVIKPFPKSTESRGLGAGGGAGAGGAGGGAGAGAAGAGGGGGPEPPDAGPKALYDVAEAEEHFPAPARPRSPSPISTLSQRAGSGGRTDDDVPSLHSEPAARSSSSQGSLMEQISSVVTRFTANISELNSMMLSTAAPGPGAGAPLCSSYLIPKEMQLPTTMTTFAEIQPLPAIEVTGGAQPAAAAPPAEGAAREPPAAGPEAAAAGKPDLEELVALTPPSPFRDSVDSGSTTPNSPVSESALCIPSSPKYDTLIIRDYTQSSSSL
row,IC50 [µM],Structure (SMILES)
1,1.89,"O=C(C#Cc1ccccc1)N1CCN(c2ccsc2)CC1 [Example 1, 1-(3-phenyl-propiolyl)-4-(thiophene-3-yl)-piperazine hydrochloride]"
2,0.63,"O=C(C#Cc1ccccc1)N1CCN(c2cscn2)CC1 [Example 2, 1-(3-Phenyl-propiolyl)-4-(thiazol-4-yl)-piperazine]"
3,4.84,"Cn1ccnc1N1CCN(C(=O)C#Cc2ccccc2)CC1 [Example 3, 1-(3-phenyl-propiolyl)-4-(1-methyl-imidazol-2-yl)-piperazine hydrochloride]"
4,0.016,"C[C@@H]1CN(c2cscn2)CCN1C(=O)C#Cc1cccc(Cl)c1 [Example 4, (R)-2-methyl-1-(3-(3-chloro-phenyl)-propiolyl)-4-(thiazol-4-yl)-piperazine]"
5,0.027,"CC1CN(c2nncs2)CCN1C(=O)C#Cc1cccc(Cl)c1 (stereo not drawn) [Example 5, 2-methyl 1-(3-(3-chloro-phenyl)-propiolyl)-4-(1,3,4-thiadiazol-2-yl)-piperazine]"
6,0.021,"CN(CCNC(=O)C#Cc1cccc(Cl)c1)c1nncs1 [Example 6, 3-(3-chlorophenyl)-N-(2-(methyl(1,3,4-thiadiazol-2-yl)amino)ethyl)propiolamide]"
7,0.0005,"CN(CCNC(=O)C#Cc1cccc(Cl)c1)c1cncs1 [Example 7, 3-(3-chlorophenyl)-N-(2-(methyl(thiazol-5-yl)amino)ethyl)propiolamide]"
8,0.35,"CN(CCNC(=O)C#Cc1cccc(Cl)c1)c1nccn1C [Example 8, 3-(3-chlorophenyl)-N-(2-(methyl(1-methyl-1H-imidazol-2-yl)amino)ethyl)propiolamide]"
